Test results taken from PubChem BioAssay (NCI).
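Assay format: 96-well plates, 48-hour exposure. The concentration for 50% growth inhibition is given as GI50. TGI: total growth inhibition.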

Legend:
Assay in all cases: NCI tumour cell line growth inhibition, 48 h
OVCAR-8 ovarian = tested on: OVCAR-8 ovarian
MOLT-4 leukemia = tested on: MOLT-4 leukemia
UO-31 renal = tested on: UO-31 renal
HCT-15 colon = tested on: HCT-15 colon
SK-MEL-2 melanoma = tested on: SK-MEL-2 melanoma
SF-268 CNS = tested on: SF-268 CNS
A549 NSCLC = tested on: A549 NSCLC
SNB-19 CNS = tested on: SNB-19 CNS
SNB-75 CNS = tested on: SNB-75 CNS
U251 CNS = tested on: U251 CNS
HS 578T breast = tested on: HS 578T breast
HCT-116 colon = tested on: HCT-116 colon
HOP-62 NSCLC = tested on: HOP-62 NSCLC
OVCAR-5 ovarian = tested on: OVCAR-5 ovarian
IGROV1 ovarian = tested on: IGROV1 ovarian
NCI-H522 lung = tested on: NCI-H522 lung
CCRF-CEM leukemia = tested on: CCRF-CEM leukemia
SF-295 CNS = tested on: SF-295 CNS
NCI-H226 lung = tested on: NCI-H226 lung
DU-145 prostate = tested on: DU-145 prostate
SF-539 CNS = tested on: SF-539 CNS
NCI-H460 lung = tested on: NCI-H460 lung
EKVX NSCLC = tested on: EKVX NSCLC
MDA-MB-231 breast = tested on: MDA-MB-231 breast
ACHN renal = tested on: ACHN renal
MCF7 breast = tested on: MCF7 breast
BT-549 breast = tested on: BT-549 breast
COLO 205 colon = tested on: COLO 205 colon
CAKI-1 renal = tested on: CAKI-1 renal
UACC-62 melanoma = tested on: UACC-62 melanoma
KM12 colon = tested on: KM12 colon
OVCAR-3 ovarian = tested on: OVCAR-3 ovarian
A498 renal = tested on: A498 renal
SK-MEL-5 melanoma = tested on: SK-MEL-5 melanoma
UACC-257 melanoma = tested on: UACC-257 melanoma
M14 melanoma = tested on: M14 melanoma
MDA-MB-435 = tested on: MDA-MB-435
LOX IMVI melanoma = tested on: LOX IMVI melanoma
MALME-3M melanoma = tested on: MALME-3M melanoma
HT29 colon = tested on: HT29 colon
SK-MEL-28 melanoma = tested on: SK-MEL-28 melanoma
SK-OV-3 ovarian = tested on: SK-OV-3 ovarian
SW-620 colon = tested on: SW-620 colon
NCI/ADR-RES ovarian = tested on: NCI/ADR-RES ovarian
K-562 leukemia = tested on: K-562 leukemia
SN12C renal = tested on: SN12C renal
OVCAR-4 ovarian = tested on: OVCAR-4 ovarian
786-0 renal = tested on: 786-0 renal
RPMI-8226 leukemia = tested on: RPMI-8226 leukemia
NCI-H23 lung = tested on: NCI-H23 lung
TK-10 renal = tested on: TK-10 renal
HOP-92 NSCLC = tested on: HOP-92 NSCLC
SR leukemia = tested on: SR leukemia
HL-60(TB) leukemia = tested on: HL-60(TB) leukemia
T-47D breast = tested on: T-47D breast
RXF 393 renal = tested on: RXF 393 renal
PC-3 prostate = tested on: PC-3 prostate
HCC-2998 colon = tested on: HCC-2998 colon

## O=C(Nc1ccc(Cl)cc1F)c1cc(Br)ccc1O
OVCAR-8 ovarian
  GI50: 1.13 µM
  TGI: > 37.4 µM
MOLT-4 leukemia
  GI50: 2.34 µM
  TGI: 7.87 µM
UO-31 renal
  GI50: 0.461 µM
  TGI: 3.65 µM
HCT-15 colon
  GI50: 1.06 µM
  TGI: > 20.8 µM
SK-MEL-2 melanoma
  GI50: 0.467 µM
  TGI: 3.18 µM
SF-268 CNS
  GI50: 0.745 µM
  TGI: 9.66 µM
A549 NSCLC
  GI50: 1.42 µM
  TGI: > 100 µM
SNB-19 CNS
  GI50: 0.508 µM
  TGI: > 100 µM
SNB-75 CNS
  GI50: 0.468 µM
  TGI: 2.87 µM
U251 CNS
  GI50: 0.913 µM
  TGI: > 52.4 µM
HS 578T breast
  GI50: 0.521 µM
  TGI: 4.08 µM
HCT-116 colon
  GI50: 0.805 µM
  TGI: 3.19 µM
HOP-62 NSCLC
  GI50: 1.25 µM
  TGI: 7.96 µM
OVCAR-5 ovarian
  GI50: 3.71 µM
  TGI: > 100 µM
IGROV1 ovarian
  GI50: 0.642 µM
  TGI: > 100 µM
NCI-H522 lung
  GI50: 0.481 µM
  TGI: 9.23 µM
CCRF-CEM leukemia
  GI50: 2.37 µM
  TGI: > 27.6 µM
SF-295 CNS
  GI50: 1.65 µM
  TGI: 3.51 µM
NCI-H226 lung
  GI50: 1.16 µM
  TGI: 4.11 µM
DU-145 prostate
  GI50: 1.89 µM
  TGI: > 100 µM
SF-539 CNS
  GI50: 0.804 µM
  TGI: 7.29 µM
NCI-H460 lung
  GI50: 0.653 µM
  TGI: 18.3 µM
EKVX NSCLC
  GI50: 1.46 µM
  TGI: > 26.1 µM
MDA-MB-231 breast
  GI50: 0.968 µM
  TGI: 8.12 µM
ACHN renal
  GI50: 1.12 µM
  TGI: 16.7 µM
MCF7 breast
  GI50: 1.26 µM
  TGI: > 100 µM
BT-549 breast
  GI50: 0.685 µM
  TGI: 3.01 µM
COLO 205 colon
  GI50: 7.65 µM
  TGI: 21.5 µM
CAKI-1 renal
  GI50: 0.505 µM
  TGI: 4.19 µM
UACC-62 melanoma
  GI50: 0.305 µM
  TGI: 1.26 µM
KM12 colon
  GI50: 2.13 µM
  TGI: 5.92 µM
OVCAR-3 ovarian
  GI50: 0.604 µM
  TGI: 14.2 µM
A498 renal
  GI50: 0.23 µM
  TGI: 0.709 µM
SK-MEL-5 melanoma
  GI50: 0.3 µM
  TGI: 1.07 µM
UACC-257 melanoma
  GI50: 0.705 µM
  TGI: 3.29 µM
M14 melanoma
  GI50: 0.751 µM
  TGI: 3.75 µM
MDA-MB-435
  GI50: 0.941 µM
  TGI: 8.44 µM
LOX IMVI melanoma
  GI50: 0.769 µM
  TGI: 4.92 µM
MALME-3M melanoma
  GI50: 0.595 µM
  TGI: 2.65 µM
HT29 colon
  GI50: 3.67 µM
  TGI: > 100 µM
SK-MEL-28 melanoma
  GI50: 0.563 µM
  TGI: 3.19 µM
SK-OV-3 ovarian
  GI50: 0.763 µM
SW-620 colon
  GI50: 1.46 µM
  TGI: > 36.2 µM
NCI/ADR-RES ovarian
  GI50: 1.39 µM
  TGI: 14.6 µM
K-562 leukemia
  GI50: 0.678 µM
  TGI: > 100 µM
SN12C renal
  GI50: 0.788 µM
  TGI: 8.58 µM
OVCAR-4 ovarian
  GI50: 0.732 µM
  TGI: > 100 µM
786-0 renal
  GI50: 2.58 µM
  TGI: 7.43 µM
RPMI-8226 leukemia
  GI50: 0.43 µM
  TGI: 2.19 µM
NCI-H23 lung
  GI50: 0.659 µM
  TGI: 4.69 µM
TK-10 renal
  GI50: 4.15 µM
  TGI: > 53.1 µM
HOP-92 NSCLC
  GI50: 0.183 µM
  TGI: 0.67 µM
SR leukemia
  GI50: 0.7 µM
  TGI: > 23 µM
HL-60(TB) leukemia
  GI50: 0.919 µM
  TGI: 3.77 µM
T-47D breast
  GI50: 0.56 µM
  TGI: 4.46 µM
RXF 393 renal
  GI50: 0.799 µM
  TGI: 3.75 µM
PC-3 prostate
  GI50: 1.83 µM
  TGI: 8.53 µM
HCC-2998 colon
  GI50: 2.73 µM
  TGI: 13.3 µM
